The record followed here is patent publication US12227517B2, “Pyridazinyl-thiazolecarboxamide compound” (Astellas Pharma Inc., priority 2019, dated 2025).

pIC50: −log10 of the molar value.

Sequence of human recombinant DGK ξ (Q13574 whole entry): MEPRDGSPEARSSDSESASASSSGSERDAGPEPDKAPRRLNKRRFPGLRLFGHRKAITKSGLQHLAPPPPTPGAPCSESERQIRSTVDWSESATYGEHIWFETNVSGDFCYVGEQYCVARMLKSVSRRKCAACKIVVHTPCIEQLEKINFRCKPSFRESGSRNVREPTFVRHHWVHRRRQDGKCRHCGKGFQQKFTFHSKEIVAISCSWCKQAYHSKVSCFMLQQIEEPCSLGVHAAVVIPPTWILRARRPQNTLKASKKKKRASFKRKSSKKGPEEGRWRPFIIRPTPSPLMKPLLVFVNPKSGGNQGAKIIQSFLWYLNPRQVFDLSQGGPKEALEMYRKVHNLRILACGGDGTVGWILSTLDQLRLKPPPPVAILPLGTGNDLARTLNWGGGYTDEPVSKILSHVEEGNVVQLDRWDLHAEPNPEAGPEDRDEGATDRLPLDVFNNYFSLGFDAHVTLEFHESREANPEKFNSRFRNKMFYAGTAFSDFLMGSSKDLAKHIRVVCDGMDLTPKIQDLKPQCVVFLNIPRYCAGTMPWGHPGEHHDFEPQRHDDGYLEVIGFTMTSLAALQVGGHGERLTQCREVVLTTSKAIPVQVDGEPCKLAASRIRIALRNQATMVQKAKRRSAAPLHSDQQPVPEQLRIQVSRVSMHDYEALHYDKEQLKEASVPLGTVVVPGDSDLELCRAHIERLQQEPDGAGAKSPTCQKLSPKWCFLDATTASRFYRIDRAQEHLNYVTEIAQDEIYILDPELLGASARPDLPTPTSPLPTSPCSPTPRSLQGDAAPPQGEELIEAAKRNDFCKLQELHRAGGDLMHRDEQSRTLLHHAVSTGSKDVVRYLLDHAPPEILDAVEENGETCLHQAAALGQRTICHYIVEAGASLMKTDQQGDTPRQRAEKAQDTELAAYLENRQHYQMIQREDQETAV

This experiment deals with human recombinant DGK ξ (Homo sapiens (Human), UniProt Q13574). The experiment is described as follows: Evaluation of DGK ξ inhibitory effect (ADP-Glo Kinase Assay). Format: biochemical. As for the experimental part:
Test Example 1: Evaluation of DGK ξ Inhibitory Effect
The inhibitory effect of a test compound on human recombinant DGK ξ (Carna Biosciences, Inc., 12-410-20N) was examined by the following method in which detection is performed with ADP-Glo™ Kinase Assay (Promega Corporation).
To a 384-well plate (Greiner Bio-One Co., Ltd.), 3 μL of a […] dissolved in an assay buffer (40 mM Tris-HCl pH 7.5, 10 mM MgCl2, 1 mM dithiothreitol (DTT) and 0.1 mg/mL bovine serum albumin (BSA)) (90 ng/mL) was added, and 3 μL of the test compound diluted with the same assay buffer was added so that an intended final concentration was obtained. The mixture was left standing at room temperature for 15 minutes, 3 μL of a substrate (150 μM 1-oleoyl-2-acetyl-sn-glycerol (Sigma-Aldrich Co. LLC.), 480 μM phosphatidylserine (Avanti Polar Lipids, Inc.) and 150 μM UltraPure-ATP (attached to ADP-Glo)) was then added, and the mixture was left standing at room temperature for 30 minutes to react. Thereafter, 3 μL of an ADP-Glo Reagent was added, and the mixture was left standing at room temperature for 40 minutes to stop the enzyme reaction. Further, 6 μL of a Kinase-Detection Reagent was added, the mixture was left standing at room temperature for 30 minutes, and the luminescence was then measured using ARVO X3 (PerkinElmer, Inc.). The half maximal inhibitory concentration (IC50) was calculated by Sigmoid-Emax model non-linear regression analysis, where the signal value in solvent treatment was set to 0% inhibition and the signal value without addition of the DGK ξ enzyme was set to 100% inhibition. […] In the table, Ex represents the number of each Example described below. Also, in the table, compound C (cpd. C) represents the test compound of the Example 199 described in the international publication WO 2008/054702.
On to `NC[C@@H]1CCCN(c2c(NC(=O)c3csc(-c4ccnnc4)n3)ccc(OC3CC3)c2C(F)(F)F)C1` [Example 13], for which the pIC50 was 7.89. Next, `CNC[C@H]1CCCN1c1c(NC(=O)c2csc(-c3ccnnc3)n2)ccc(Oc2ccccc2F)c1C(F)(F)F` [Example 20]: 7.36. With `NC[C@@H]1CCCN(c2c(NC(=O)c3csc(-c4ccnnc4)n3)ccc(Oc3ccccc3)c2C2CC2)C1` [Example 67], the pIC50 was 7.92. `Cn1cc(Oc2ccc(NC(=O)c3csc(-c4ccnnc4)n3)c(N3CCC[C@@H](CN)C3)c2C(F)(F)F)cn1` [Example 16]: the pIC50 is 7.39. For the molecule `NCC[C@H]1CCCN1c1c(NC(=O)c2csc(-c3ccnnc3)n2)ccc(Oc2ccccc2)c1C(F)(F)F` [Example 45], the negative-log IC50 (pIC50) was 7.62. The result for `O=C(Nc1ccc(Oc2ccccc2F)c(C(F)(F)F)c1N1CCC[C@@H]1CNC1COC1)c1csc(-c2ccnnc2)n1` [Example 63, N-[4-(2-fluorophenoxy)-2-[(2R)-2-{[(oxetan-3-yl)amino]methyl}pyrrolidin-1-yl]-3-(trifluoromethyl)phenyl]-2-(pyridazin-4-yl)-1,3-thiazole-4-carboxamide] reads 6.37; that for `CNC[C@@H]1CCCN(c2c(NC(=O)c3csc(-c4ccnnc4)n3)ccc(Oc3ccccc3)c2C(F)(F)F)C1` [Example 49, N-[2-{(3S)-3-[(methylamino)methyl]piperidin-1-yl}-4-phenoxy-3-(trifluoromethyl)phenyl]-2-(pyridazin-4-yl)-1,3-thiazole-4-carboxamide], 8.00; that for `O=C(Nc1ccc(Oc2ccccc2)c(C(F)(F)F)c1N1CCOC2(CCN(C3COC3)CC2)C1)c1csc(-c2ccnnc2)n1` [Example 62, N-{2-[9-(oxetan-3-yl)-1-oxa-4,9-diazaspiro[5.5]undecan-4-yl]-4-phenoxy-3-(trifluoromethyl)phenyl}-2-(pyridazin-4-yl)-1,3-thiazole-4-carboxamide], 8.00.

Consider `NC[C@H]1CCCN1c1c(NC(=O)c2csc(-c3ccnnc3)n2)ccc(Oc2ccccc2F)c1C(F)(F)F` [Example 19], for which the pIC50 was 7.82. Next, `NC[C@@H]1CCCN(c2c(NC(=O)c3csc(-c4ccnnc4)n3)ccc(Oc3c(F)cc(F)cc3F)c2C(F)(F)F)C1` [Example 23]: 8.00. As for `Cc1ccccc1Oc1ccc(NC(=O)c2csc(-c3ccnnc3)n2)c(N2CCC[C@@H](CN)C2)c1C(F)(F)F` [Example 21], the pIC50 is 8.22. Take `NC[C@@H]1CCCN(c2c(NC(=O)c3csc(-c4ccnnc4)n3)ccc(Nc3ccccc3)c2C(F)(F)F)C1` [Example 18]: the pIC50 is 7.72. Next, `NCC[C@@H]1CCCN(c2c(NC(=O)c3csc(-c4ccnnc4)n3)ccc(Oc3ccccc3)c2C(F)(F)F)C1` [Example 7]: 6.96; `CN(C)[C@@H]1CCN2CCN(c3c(NC(=O)c4csc(-c5ccnnc5)n4)ccc(OC4CC4)c3C(F)(F)F)C[C@@H]12` [Example 82]: 8.52; `CN(C)C[C@@H]1CN(c2c(NC(=O)c3csc(-c4ccnnc4)n3)ccc(Oc3ccccc3)c2C(F)(F)F)CCO1` [Example 56]: 7.54.

As for `NC[C@H]1CCCN(c2c(NC(=O)c3csc(-c4ccnnc4)n3)ccc(Oc3ccccc3)c2C(F)(F)F)C1` [Example 32], the pIC50 was 7.51.

`NC[C@@H]1CCCN(c2c(NC(=O)c3csc(-c4ccnnc4)n3)ccc(N3CCCC3)c2C(F)(F)F)C1` [Example 47]: the pIC50 was 6.83.

Take `COCCNC[C@@H]1CCCN(c2c(NC(=O)c3csc(-c4ccnnc4)n3)ccc(Oc3cccc(F)c3)c2C(F)(F)F)C1` [Example 53]: the pIC50 is 7.57. The result for `CNC[C@H]1CN(c2c(NC(=O)c3csc(-c4ccnnc4)n3)ccc(Oc3ccccc3)c2C(F)(F)F)CCO1` [Example 29] reads 6.37; that for `N[C@H]1CCN2CCN(c3c(NC(=O)c4csc(-c5ccnnc5)n4)ccc(Oc4ccccc4)c3C(F)(F)F)C[C@@H]12` [Example 74], 7.39.

Turning to `O=C(Nc1ccc(Oc2ccccc2)c(C(F)(F)F)c1N1CCOC2(CCNCC2)C1)c1csc(-c2ccnnc2)n1` [Example 12], the pIC50 was 7.77.
